Results published in article PMC10002375, “Synthesis of 3-(2-Alkylthio-4-chloro-5-methylbenzenesulfonyl)-2-(1-phenyl-3-arylprop-2-enylideneamino)guanidine Derivatives with Pro-Apoptotic Activity against Cancer Cells” (International Journal of Molecular Sciences, 2023).

Experiments:
Assay type in all cases: cell-based, human
[1] = system: HeLa (cervical cancer); test: MTT cell viability assay, HeLa; conditions: Homo sapiens, HeLa; MTT, 72 h
Description: (§1) All chemicals, if not stated otherwise, were obtained from Sigma-Aldrich (St. Louis, MO, USA). The MCF-7 cell line was purchased from Cell Lines Services (Eppelheim, Germany), the HeLa and HCT-116 cell lines were obtained from the Department of Microbiology, Tumor and Cell Biology, Karolinska Institute (Stockholm, Sweden). Cells were cultured in Dulbecco’s modified Eagle’s medium (DMEM) supplemented with 10% fetal bovine serum, 2 mM glutamine, 100 units/mL penicillin, and 100 μg/mL streptomycin. Cultures were maintained in a humidified atmosphere with 5% CO2 at 37 °C in an incubator (HeraCell, Heraeus, Langenselbold, Germany).
(§2) Cell viability was determined using the MTT (3-(4,5-dimethylthiazol-2-yl)-2,5-diphenyl-tetrazoliumbromide) assay. Stock solutions of the studied compounds were prepared in 100% DMSO. […] Cells were seeded in 96-well plates at a density of 5 × 10^3 cells/well and treated for 72 h with the examined compounds in the concentration range 1–100 μM (1, 10, 25, 50, and 100 μM). Following treatment, MTT (0.5 mg/mL) was added to the medium and cells were further incubated for 2 h at 37 °C. Cells were lysed with DMSO and the absorbance of the formazan solution was measured at 550 nm with a plate reader (1420 multilabel counter, Victor, Jügesheim, Germany). […] The experiment was performed in triplicate. Values are expressed as the mean ± SD of at least three independent experiments.

[2] = system: HCT-116 cells; test: Phosphatidylserine translocation (Annexin V-FITC/PI), HCT-116; conditions: HCT-116, 72 h; 24 at 10 or 25 μM, 31 at 25 μM
Excerpt: (§3) One of the early indicators of apoptosis is the exposure of phosphatidylserine residues on the cell’s surface. Annexin V has a high affinity to phosphatidylserine and, as a conjugate to fluorescein isothiocyante (FITC), is widely used for detection of early apoptotic cells using flow cytometry. Detection of late-apoptotic or necrotic cells is achieved by using propidium iodide (PI) stain. Based on the obtained fluorescence, four subpopulations were found: PI-low/FITC-low (live cells), PI-high/FITC-low (necrotic cells), PI-low/FITC-high (early apoptotic cells), and PI-high/FITC-high (late apoptotic cells).
(§4) Analysis was performed using FITC-conjugated annexin-V (Annexin V-FITC Apoptosis Kit I, BD Biosciences, San Jose, CA, USA) according to the manufacturer’s instructions (BD Biosciences) as described previously. HeLa, MCF-7, and HCT-116, after seeding to 24-well plates (5 × 10^4/per well) and 24 h incubation, were treated for 72 h with 24 or 31 (10/25 µM or 25 µM concentration respectively). Following treatment, cells were washed in PBS, centrifuged, and then resuspended in a binding buffer. Afterward, the cells were incubated for 15 min at 37 °C with FITC-conjugated annexin-V and propidium iodide. The samples were then analyzed using a LSR II flow cytometer (BD Biosciences) using 530 ± 25 nm (Annexin V-FITC) and 575 ± 26 nm (PI).
(§5) The subpopulations were identified according to their fluorescence: PI-low/FITC-low (live cells), PI-high/FITC-low (necrotic cells), PI-low/FITC-high (early apoptotic cells), and PI-high/FITC-high (late apoptotic cells).

[3] = system: HCT-116 (colon cancer); test: MTT cell viability assay, HCT-116; conditions: Homo sapiens, HCT-116; MTT, 72 h
Description: as §1, §2

[4] = system: HCT-116 cells; test: Mitochondrial membrane potential (JC-1, flow cytometry), HCT-116; conditions: HCT-116, 72 h, 24 at 10 or 25 μM, 31 at 25 μM
Excerpt: (§6) A decrease in mitochondrial potential is one of the earliest hallmarks of apoptosis. A common method for indication of cells with high and low Δψm is flow cytometry combined with specific fluorescent probes, such as JC-1 (5,5′,6,6′-tetrachloro-1,1′,3,3′-tetraethylbenzimidazolylcarbocyanine iodide). JC-1 accumulates in mitochondria and forms complexes (J aggregates) with red fluorescence in healthy cells with a normal ΔΨm, whereas in apoptotic cells with a low ΔΨm exists as a monomer with green fluorescence.
(§7) Analyzed cells were seeded into wells of a 24-well plate at a density of 5 × 10^4 cells in 1000 µL, incubated overnight, and then the medium was exchanged for dilutions of reagents 24 and 31. Before the end of 72 h of incubation, MitoProbe JC-1 (25 µM) was added into each plate well. Carbonyl cyanide m-chlorophenylhydrazone CCCP (200 nM) as the mitochondrial oxidative phosphorylation uncoupler was added into the positive control 15 min before JC-1 was added. After 30 min of JC-1 staining, cells were washed with PBS and then trypsinized (Corning® 25-053CI). Cells suspended in PBS were analyzed by flow cytometry at λ excitation (ex) = 488 nm and λ emission (em) = 525/570 nm (LSR II BD Biosciences, San Jose, CA, USA).

[5] = system: HeLa cells; test: Mitochondrial membrane potential (JC-1, flow cytometry), HeLa; conditions: 72 h, 24 at 10 or 25 μM, 31 at 25 μM
Excerpt: as §6, §7

[6] = system: MCF-7 (breast cancer); test: MTT cell viability assay, MCF-7; conditions: Homo sapiens, MCF7; MTT, 72 h
Excerpt: The cytotoxic activity of the compounds 8–33 has been evaluated in MTT assays against three human cancer cell lines MCF-7 (breast cancer), HeLa (cervical cancer), and HCT-116 (colon cancer) and it was expressed as IC50 values in μM (Table 1).
as §1, §2

[7] = system: HeLa cells; test: Phosphatidylserine translocation (Annexin V-FITC/PI), HeLa; conditions: 72 h, 24 at 10 or 25 μM, 31 at 25 μM
Excerpt: as §3, §4, §5

[8] = system: MCF-7 cells; test: Mitochondrial membrane potential (JC-1, flow cytometry), MCF-7; conditions: MCF-7, 72 h, 24 at 10 or 25 μM, 31 at 25 μM
Excerpt: as §6, §7

[9] = system: HCT-116 cells; test: Cell cycle distribution by flow cytometry, HCT-116
Description: (§8) The cell cycle distribution was measured by flow cytometry analysis after incubation of MCF-7, HeLa, and HCT-116 with compounds 24 and 31 for 72 h.

[10] = system: MCF-7 cells; test: Phosphatidylserine translocation (Annexin V-FITC/PI), MCF-7; conditions: MCF-7, 72 h; 24 at 10 or 25 μM, 31 at 25 μM
Excerpt: as §3, §4, §5

[11] = system: HeLa cells; test: Cell cycle distribution by flow cytometry, HeLa; conditions: 72 h
Description: as §8

[12] = system: MCF-7 cells; test: Cell cycle distribution by flow cytometry, MCF-7
Description: as §8

- IC50 [1]: 110 ± 5 µM
- IC50 [3]: 365 ± 11 µM
- IC50 [6]: 230 ± 13 µM
SMILES: COc1ccc(C=CC(=NN=C(N)NS(=O)(=O)c2cc(C)c(Cl)cc2SCc2ccc(Cl)cc2)c2ccccc2)cc1 [Compound 31]
- population of apoptotic cells (Annexin V-FITC/PI) [2]: did not cause statistically significant differences compared to the control
- change of mitochondrial membrane potential (ΔΨm) [4]: did not result in a loss of ΔΨm
- change of mitochondrial membrane potential (ΔΨm) [5]: did not result in a loss of ΔΨm
- population of apoptotic cells (Annexin V-FITC/PI) [7]: did not cause statistically significant differences compared to the control
- change of mitochondrial membrane potential (ΔΨm) [8]: did not result in a loss of ΔΨm
- cells in sub-G1 phase ([9]; HCT-116, 25 μM, 72 h, control 1.15%): 1.84%
- effect on cell cycle distribution ([9]; HCT-116, 72 h, 24 at 10 and 25 μM, 31 at 25 μM): does not substantially affect the cell cycle progression
- population of apoptotic cells (Annexin V-FITC/PI) [10]: did not cause statistically significant differences compared to the control
- cells in sub-G1 phase ([11]; 25 μM, control 5.08%): 5.45%
- effect on cell cycle distribution ([11]; 24 at 10 and 25 μM, 31 at 25 μM): does not substantially affect the cell cycle progression
- cells in sub-G1 phase ([12]; MCF-7, 25 μM, 72 h): 2.78%
- effect on cell cycle distribution ([12]; MCF-7, 72 h, 24 at 10 and 25 μM, 31 at 25 μM): does not substantially affect the cell cycle progression
